# Legend:
# [1] = target: T1, Aryl hydrocarbon receptor (Homo sapiens, UniProt P35869); assay: Aryl hydrocarbon receptor antagonist (species not specified)
# T1 sequence (P35869 whole entry): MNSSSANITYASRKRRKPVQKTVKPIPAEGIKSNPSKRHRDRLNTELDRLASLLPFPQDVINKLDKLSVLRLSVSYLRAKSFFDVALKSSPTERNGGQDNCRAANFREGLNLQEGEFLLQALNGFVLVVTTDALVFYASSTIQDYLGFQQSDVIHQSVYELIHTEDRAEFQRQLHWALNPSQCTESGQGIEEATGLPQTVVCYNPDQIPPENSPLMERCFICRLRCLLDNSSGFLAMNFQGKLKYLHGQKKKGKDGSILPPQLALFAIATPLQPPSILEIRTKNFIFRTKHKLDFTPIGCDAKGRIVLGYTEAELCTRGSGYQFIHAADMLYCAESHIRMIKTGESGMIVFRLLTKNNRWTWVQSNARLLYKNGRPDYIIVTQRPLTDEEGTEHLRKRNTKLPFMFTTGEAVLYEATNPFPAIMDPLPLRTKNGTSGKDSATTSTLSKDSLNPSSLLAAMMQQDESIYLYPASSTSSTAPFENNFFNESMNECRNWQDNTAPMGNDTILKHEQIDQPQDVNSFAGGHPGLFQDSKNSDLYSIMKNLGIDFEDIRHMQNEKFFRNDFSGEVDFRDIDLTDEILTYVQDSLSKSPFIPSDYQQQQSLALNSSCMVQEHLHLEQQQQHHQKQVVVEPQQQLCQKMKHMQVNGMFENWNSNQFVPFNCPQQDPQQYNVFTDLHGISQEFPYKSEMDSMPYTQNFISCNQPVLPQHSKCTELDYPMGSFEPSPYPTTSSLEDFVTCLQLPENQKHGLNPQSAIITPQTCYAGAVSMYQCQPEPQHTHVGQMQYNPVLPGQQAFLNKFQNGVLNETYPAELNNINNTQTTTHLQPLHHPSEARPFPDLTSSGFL
# Cytochrome P450 2E1 [2] = target: T2, Cytochrome P450 2E1 (Homo sapiens, UniProt P05181); assay: Clinically relevant substrates of human liver microsomal P450 enzymes, isoform CYP2E1; format: ADME; conditions: microsomes
# Sulfotransferase 1A2 = Sulfotransferase 1A2 (Homo sapiens, UniProt P50226); assay: Major substrate of human cytosolic sulfotransferase SULT1A2; format: ADME
# Sulfotransferase 1A1 = Sulfotransferase 1A1 (Homo sapiens, UniProt P50225); assay: Major substrate of human cytosolic sulfotransferase SULT1A1; format: ADME
# Sulfotransferase 1C4 = Sulfotransferase 1C4 (Homo sapiens, UniProt O75897); assay: Major substrate of human cytosolic sulfotransferase SULT1C4; format: ADME
# Sulfotransferase 4A1 = target: T3, Sulfotransferase 4A1 (Homo sapiens, UniProt Q9BR01); assay: Major substrate of human cytosolic sulfotransferase SULT4A1_v1; format: ADME
# T3 sequence (Q9BR01 whole entry): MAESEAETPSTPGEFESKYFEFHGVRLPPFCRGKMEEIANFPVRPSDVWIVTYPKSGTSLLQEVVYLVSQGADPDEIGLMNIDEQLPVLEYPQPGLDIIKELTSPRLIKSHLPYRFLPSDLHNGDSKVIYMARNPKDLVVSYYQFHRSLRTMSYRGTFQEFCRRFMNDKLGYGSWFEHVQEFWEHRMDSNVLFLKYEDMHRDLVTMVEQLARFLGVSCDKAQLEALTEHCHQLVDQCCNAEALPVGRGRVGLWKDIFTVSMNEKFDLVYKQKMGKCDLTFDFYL
# [3] = target: T4, UDP-glucuronosyltransferase 1A6 (Homo sapiens, UniProt P19224); assay: Substrate of human UDP-glucuronosyltransferase UGT1A6; format: ADME
# T4 sequence (P19224 whole entry): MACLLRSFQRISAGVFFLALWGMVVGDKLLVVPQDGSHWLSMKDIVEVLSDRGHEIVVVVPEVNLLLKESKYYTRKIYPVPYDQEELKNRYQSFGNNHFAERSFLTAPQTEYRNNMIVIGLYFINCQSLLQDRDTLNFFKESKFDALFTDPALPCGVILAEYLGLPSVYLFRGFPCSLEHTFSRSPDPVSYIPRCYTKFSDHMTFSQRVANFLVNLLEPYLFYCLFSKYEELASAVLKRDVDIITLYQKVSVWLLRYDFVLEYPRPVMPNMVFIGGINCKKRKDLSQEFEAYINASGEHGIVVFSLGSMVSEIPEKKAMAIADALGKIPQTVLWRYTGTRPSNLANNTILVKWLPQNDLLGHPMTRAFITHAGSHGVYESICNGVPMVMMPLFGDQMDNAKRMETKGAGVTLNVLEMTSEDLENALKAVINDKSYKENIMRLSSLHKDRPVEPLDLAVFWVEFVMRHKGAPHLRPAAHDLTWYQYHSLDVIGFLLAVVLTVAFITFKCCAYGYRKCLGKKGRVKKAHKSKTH
# Sulfotransferase 1A3 = Sulfotransferase 1A3 (Homo sapiens, UniProt P0DMM9); assay: Major substrate of human cytosolic sulfotransferase SULT1A3; format: ADME
# Sulfotransferase 1B1 = Sulfotransferase 1B1 (Homo sapiens, UniProt O43704); assay: Major substrate of human cytosolic sulfotransferase SULT1B1; format: ADME
# Sulfotransferase 1C2 = Sulfotransferase 1C2 (Homo sapiens, UniProt O00338); assay: Major substrate of human cytosolic sulfotransferase SULT1C2; format: ADME
# Cytochrome P450 1A2 = target: T5, Cytochrome P450 1A2 (Homo sapiens, UniProt P05177); assay: Clinically relevant inducers of human liver microsomal P450 enzymes, isoform CYP1A2; format: ADME; conditions: microsomes
# T5 sequence (P05177 whole entry): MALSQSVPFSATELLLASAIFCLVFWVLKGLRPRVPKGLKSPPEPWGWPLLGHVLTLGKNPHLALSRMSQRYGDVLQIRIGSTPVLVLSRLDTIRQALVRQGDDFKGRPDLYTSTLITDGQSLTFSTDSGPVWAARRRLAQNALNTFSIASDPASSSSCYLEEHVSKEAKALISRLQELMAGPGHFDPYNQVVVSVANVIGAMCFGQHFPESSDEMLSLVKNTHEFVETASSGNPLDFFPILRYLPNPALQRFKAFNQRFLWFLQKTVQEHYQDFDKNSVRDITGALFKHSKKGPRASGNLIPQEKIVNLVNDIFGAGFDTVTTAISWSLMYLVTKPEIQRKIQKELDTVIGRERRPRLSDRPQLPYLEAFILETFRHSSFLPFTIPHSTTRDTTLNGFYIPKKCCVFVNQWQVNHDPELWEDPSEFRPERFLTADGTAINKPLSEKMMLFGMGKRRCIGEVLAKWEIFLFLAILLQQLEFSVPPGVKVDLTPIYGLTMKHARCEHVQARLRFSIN
# [4] = target: T1, Aryl hydrocarbon receptor; assay: Aryl hydrocarbon receptor agonist (species not specified)
# Cytochrome P450 2A6 [5] = target: T6, Cytochrome P450 2A6 (Homo sapiens, UniProt P11509); assay: Clinically relevant substrates of human liver microsomal P450 enzymes, isoform CYP2A6; format: ADME; conditions: microsomes
# T6 sequence (P11509 whole entry): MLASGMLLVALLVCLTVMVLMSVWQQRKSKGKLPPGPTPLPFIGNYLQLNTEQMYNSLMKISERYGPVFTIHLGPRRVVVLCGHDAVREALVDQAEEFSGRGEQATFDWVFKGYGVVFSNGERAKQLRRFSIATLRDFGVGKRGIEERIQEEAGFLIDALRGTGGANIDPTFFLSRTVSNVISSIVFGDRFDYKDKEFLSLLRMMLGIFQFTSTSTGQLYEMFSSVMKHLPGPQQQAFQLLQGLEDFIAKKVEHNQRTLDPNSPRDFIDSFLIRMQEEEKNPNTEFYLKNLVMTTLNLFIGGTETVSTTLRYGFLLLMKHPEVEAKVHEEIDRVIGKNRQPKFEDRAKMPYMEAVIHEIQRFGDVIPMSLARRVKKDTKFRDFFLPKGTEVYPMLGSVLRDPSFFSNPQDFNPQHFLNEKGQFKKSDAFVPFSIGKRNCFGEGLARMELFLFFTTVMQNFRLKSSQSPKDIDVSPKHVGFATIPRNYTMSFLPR
# Cytochrome P450 2C19 [6] = target: T7, Cytochrome P450 2C19 (Homo sapiens, UniProt P33261); assay: Clinically relevant substrates of human liver microsomal P450 enzymes, isoform CYP2C19; format: ADME; conditions: microsomes
# Cytochrome P450 2A6 [7] = target: T6, Cytochrome P450 2A6; assay: Clinically relevant inducers of human liver microsomal P450 enzymes, isoform CYP2A6; format: ADME; conditions: microsomes
# Cytochrome P450 2B6 = target: T8, Cytochrome P450 2B6 (Homo sapiens, UniProt P20813); assay: Clinically relevant inducers of human liver microsomal P450 enzymes, isoform CYP2B6; format: ADME; conditions: microsomes
# T8 sequence (P20813 whole entry): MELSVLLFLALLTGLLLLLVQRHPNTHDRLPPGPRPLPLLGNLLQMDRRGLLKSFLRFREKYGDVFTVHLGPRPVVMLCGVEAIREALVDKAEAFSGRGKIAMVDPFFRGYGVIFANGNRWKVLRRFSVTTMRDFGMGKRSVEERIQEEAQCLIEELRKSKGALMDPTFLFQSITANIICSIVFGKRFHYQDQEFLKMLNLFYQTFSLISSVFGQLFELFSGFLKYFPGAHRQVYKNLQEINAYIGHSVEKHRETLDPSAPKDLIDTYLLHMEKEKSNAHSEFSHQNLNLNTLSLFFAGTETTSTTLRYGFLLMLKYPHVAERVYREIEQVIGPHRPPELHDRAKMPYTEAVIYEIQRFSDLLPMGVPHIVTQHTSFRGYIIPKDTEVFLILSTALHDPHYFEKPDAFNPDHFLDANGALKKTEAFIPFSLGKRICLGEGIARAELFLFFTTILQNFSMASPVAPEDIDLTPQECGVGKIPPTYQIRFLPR
# Cytochrome P450 2C8 = target: T9, Cytochrome P450 2C8 (Homo sapiens, UniProt P10632); assay: Clinically relevant inducers of human liver microsomal P450 enzymes, isoform CYP2C8; format: ADME; conditions: microsomes
# T9 sequence (P10632 whole entry): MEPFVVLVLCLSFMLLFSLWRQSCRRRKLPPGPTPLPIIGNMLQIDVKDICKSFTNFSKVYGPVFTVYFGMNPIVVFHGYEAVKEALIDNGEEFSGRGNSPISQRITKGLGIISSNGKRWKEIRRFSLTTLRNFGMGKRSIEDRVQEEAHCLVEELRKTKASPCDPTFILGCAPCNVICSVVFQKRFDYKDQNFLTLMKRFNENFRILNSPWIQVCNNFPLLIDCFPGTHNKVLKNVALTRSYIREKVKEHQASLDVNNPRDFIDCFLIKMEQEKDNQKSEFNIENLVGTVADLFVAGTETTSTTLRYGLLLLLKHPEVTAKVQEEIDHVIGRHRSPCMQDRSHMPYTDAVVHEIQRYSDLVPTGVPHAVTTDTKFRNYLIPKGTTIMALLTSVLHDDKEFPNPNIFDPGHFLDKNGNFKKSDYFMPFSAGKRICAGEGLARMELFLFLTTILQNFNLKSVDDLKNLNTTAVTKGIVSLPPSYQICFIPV
# Cytochrome P450 2C19 [8] = target: T7, Cytochrome P450 2C19; assay: Clinically relevant inducers of human liver microsomal P450 enzymes, isoform CYP2C19; format: ADME; conditions: microsomes
# Cytochrome P450 2E1 [9] = target: T2, Cytochrome P450 2E1; assay: Clinically relevant inducers of human liver microsomal P450 enzymes, isoform CYP2E1; format: ADME; conditions: microsomes
# T2 sequence (P05181 whole entry, canonical isoform): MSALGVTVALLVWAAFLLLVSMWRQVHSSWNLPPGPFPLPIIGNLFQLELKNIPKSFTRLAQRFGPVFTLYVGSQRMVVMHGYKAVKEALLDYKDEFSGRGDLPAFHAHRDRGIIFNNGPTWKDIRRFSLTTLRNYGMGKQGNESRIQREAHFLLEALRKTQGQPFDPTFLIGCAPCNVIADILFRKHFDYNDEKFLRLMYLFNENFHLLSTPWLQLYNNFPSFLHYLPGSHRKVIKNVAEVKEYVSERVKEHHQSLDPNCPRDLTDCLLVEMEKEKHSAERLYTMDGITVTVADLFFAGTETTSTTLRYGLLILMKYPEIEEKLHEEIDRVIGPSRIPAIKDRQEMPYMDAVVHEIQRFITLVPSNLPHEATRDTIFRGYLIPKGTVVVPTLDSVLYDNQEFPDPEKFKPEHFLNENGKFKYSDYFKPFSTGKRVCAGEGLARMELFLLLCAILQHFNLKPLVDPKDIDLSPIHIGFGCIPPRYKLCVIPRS
# Sulfotransferase 1C4, sequence (O75897 whole entry): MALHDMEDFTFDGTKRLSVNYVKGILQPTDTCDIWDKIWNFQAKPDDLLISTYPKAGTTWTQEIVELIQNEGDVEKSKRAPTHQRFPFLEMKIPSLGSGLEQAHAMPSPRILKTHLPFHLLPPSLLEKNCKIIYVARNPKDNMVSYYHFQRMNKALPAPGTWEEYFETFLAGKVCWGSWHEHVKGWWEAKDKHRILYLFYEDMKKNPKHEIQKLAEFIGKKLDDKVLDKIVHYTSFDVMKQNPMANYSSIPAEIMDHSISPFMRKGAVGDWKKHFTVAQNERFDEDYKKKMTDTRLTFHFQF
# T7 sequence (P33261 whole entry, canonical isoform): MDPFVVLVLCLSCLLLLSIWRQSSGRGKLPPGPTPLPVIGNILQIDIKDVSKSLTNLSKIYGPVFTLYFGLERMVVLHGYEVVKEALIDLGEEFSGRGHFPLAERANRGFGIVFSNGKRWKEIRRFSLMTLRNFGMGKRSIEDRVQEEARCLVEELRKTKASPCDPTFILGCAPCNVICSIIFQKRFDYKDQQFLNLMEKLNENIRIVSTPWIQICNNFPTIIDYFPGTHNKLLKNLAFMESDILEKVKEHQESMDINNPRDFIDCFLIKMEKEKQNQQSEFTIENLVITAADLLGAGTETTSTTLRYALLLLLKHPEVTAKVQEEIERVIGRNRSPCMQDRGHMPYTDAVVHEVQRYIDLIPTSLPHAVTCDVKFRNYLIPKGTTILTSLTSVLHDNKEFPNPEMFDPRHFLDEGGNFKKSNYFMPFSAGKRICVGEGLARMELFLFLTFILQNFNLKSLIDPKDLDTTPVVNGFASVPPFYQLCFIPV
# Sulfotransferase 1A2, sequence (P50226 whole entry): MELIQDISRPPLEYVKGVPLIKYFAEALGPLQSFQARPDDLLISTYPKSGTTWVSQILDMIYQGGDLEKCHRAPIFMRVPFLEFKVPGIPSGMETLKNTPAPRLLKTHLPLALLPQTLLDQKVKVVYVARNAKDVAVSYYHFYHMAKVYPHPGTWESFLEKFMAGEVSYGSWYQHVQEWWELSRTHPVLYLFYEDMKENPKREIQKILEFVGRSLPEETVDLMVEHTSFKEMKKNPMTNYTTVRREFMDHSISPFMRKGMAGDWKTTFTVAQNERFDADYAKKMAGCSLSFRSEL
# Sulfotransferase 1C2, sequence (O00338 whole entry, canonical isoform): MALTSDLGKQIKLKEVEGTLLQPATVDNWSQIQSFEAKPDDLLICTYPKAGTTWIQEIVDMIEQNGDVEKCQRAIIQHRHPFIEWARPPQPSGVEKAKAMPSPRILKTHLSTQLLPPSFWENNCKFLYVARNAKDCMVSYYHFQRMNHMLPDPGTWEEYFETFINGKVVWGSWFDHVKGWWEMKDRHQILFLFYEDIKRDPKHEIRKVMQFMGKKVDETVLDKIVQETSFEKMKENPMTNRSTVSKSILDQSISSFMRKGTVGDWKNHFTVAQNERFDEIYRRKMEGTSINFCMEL
# Sulfotransferase 1A3, sequence (P0DMM9 whole entry): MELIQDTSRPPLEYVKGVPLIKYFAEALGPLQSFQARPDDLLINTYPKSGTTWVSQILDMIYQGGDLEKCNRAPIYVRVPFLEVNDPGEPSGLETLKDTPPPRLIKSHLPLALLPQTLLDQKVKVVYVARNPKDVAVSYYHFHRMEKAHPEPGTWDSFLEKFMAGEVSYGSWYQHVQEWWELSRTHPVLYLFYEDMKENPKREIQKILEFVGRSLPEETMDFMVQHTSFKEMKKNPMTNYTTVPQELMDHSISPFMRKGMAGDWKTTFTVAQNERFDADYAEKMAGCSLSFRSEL
# Sulfotransferase 1A1, sequence (P50225 whole entry): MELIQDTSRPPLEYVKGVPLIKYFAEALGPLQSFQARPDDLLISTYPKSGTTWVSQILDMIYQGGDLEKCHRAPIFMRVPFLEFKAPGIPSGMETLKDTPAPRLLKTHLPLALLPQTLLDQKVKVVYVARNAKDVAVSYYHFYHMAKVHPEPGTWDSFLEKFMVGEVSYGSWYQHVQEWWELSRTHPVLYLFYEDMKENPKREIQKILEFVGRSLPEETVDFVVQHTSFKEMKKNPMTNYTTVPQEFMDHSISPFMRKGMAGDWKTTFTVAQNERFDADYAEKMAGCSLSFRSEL
# Sulfotransferase 1B1, sequence (O43704 whole entry): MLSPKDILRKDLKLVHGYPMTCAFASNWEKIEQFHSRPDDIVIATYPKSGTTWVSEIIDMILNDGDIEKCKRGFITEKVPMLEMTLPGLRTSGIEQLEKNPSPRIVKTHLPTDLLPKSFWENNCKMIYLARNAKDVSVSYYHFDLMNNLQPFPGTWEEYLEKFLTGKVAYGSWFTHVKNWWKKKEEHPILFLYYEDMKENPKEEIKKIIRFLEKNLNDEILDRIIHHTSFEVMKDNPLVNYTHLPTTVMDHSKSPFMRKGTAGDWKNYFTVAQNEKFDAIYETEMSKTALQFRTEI
compound,measurement,setting,value
COc1ccc2[nH]c(SCc3ncc(C)c(OC)c3C)nc2c1 [UFIPRAZOLE],Activity,[1],antagonist
O=[N+]([O-])c1ccc(O)cc1 [P-NITROPHENOL],Activity,Cytochrome P450 2E1 [2],Substrate
same,Activity,Sulfotransferase 1A2,Substrate
same,Activity,Sulfotransferase 1A1,Substrate
same,Activity,Sulfotransferase 1C4,Substrate
same,Activity,Sulfotransferase 4A1,Substrate
same,Activity,[3],Substrate
same,Activity,Sulfotransferase 1A3,Substrate
same,Activity,Sulfotransferase 1B1,Substrate
same,Activity,Sulfotransferase 1C2,Substrate
"Clc1cc2c(cc1Cl)Oc1cc(Cl)c(Cl)cc1O2 [2,3,7,8-TETRACHLORODIBENZO-P-DIOXIN]",Activity,Cytochrome P450 1A2,Inducer
same,Activity,[4],agonist
O=c1ccc2ccccc2o1 [COUMARIN],Activity,Cytochrome P450 2A6 [5],Substrate
COc1ccc2[nH]c([S+]([O-])Cc3ncc(C)c(OC)c3C)nc2c1 (stereo not drawn) [OMEPRAZOLE],Activity,Cytochrome P450 1A2,Inducer
same,Activity,[4],agonist
same,Activity,Cytochrome P450 2C19 [6],Substrate
Cc1ccccc1/N=N/c1ccc(NC(=O)c2ccnn2C)c(C)c1,Activity,[1],antagonist
c1cn[nH]c1 [PYRAZOLE],Activity,Cytochrome P450 2A6 [7],Inducer
CN1CCC[C@H]1c1cccnc1 [NICOTINE],Activity,Cytochrome P450 2A6 [5],Substrate
CO[C@H]1/C=C/O[C@@]2(C)Oc3c(C)c(O)c4c(O)c(c(/C=N/N5CCN(C)CC5)c(O)c4c3C2=O)NC(=O)/C(C)=C\C=C\[C@H](C)[C@H](O)[C@@H](C)[C@@H](O)[C@@H](C)[C@H](OC(C)=O)[C@@H]1C [RIFAMPIN],Activity,Cytochrome P450 2B6,Inducer
same,Activity,Cytochrome P450 2C8,Inducer
same,Activity,Cytochrome P450 2C19 [8],Inducer
CC(=O)N(O)c1ccc2c(c1)Cc1ccccc1-2,Activity,Sulfotransferase 1A2,Substrate
same,Activity,Sulfotransferase 1C4,Substrate
same,Activity,Sulfotransferase 1C2,Substrate
CCO [ALCOHOL],Activity,Cytochrome P450 2E1 [9],Inducer
NNC(=O)c1ccncc1 [ISONIAZID],Activity,Cytochrome P450 2E1 [9],Inducer
C[C@@H]1C[C@H]2[C@@H]3CCC4=CC(=O)C=C[C@]4(C)[C@@]3(F)[C@@H](O)C[C@]2(C)[C@@]1(O)C(=O)CO [DEXAMETHASONE],Activity,Cytochrome P450 2A6 [7],Inducer

# — ChEMBL document CHEMBL1743201, “Casarett and Doull's Toxicology The Basic Science of Poisons, 7th edition” (2008)
